Data taken from publication PMC7180572, “5-Alkylamino-N-phenylpyrazine-2-carboxamides: Design, Preparation, and Antimycobacterial Evaluation” (Molecules, 2020).
Converted amounts (≈) assume the structure as drawn. Like-named read-outs stand apart in the source and are kept apart here.

What was measured:
[1] = system: Staphylococcus aureus spp.aureus ATCC 29213, CCM 4223; assay: Antibacterial microdilution broth method (EUCAST); format: cell-based; settings: read-out: MIC SA
[2] = system: Staphylococcus aureus methicillin resistant ATCC 43300, CCM 4750; assay: microbe, parasite or virus in culture; format: cell-based; settings: ATCC 43300 / CCM 4750 / MRSA, read-out: MIC MRSA
[3] = system: Absidia corymbifera CCM 8077 (Lichtheimia corymbifera); assay: Antifungal microdilution broth method (EUCAST); format: cell-based; settings: read-out: MIC AC
[4] = system: Candida albicans ATCC 24433, CCM 8320; assay: Antifungal microdilution broth method (EUCAST); format: cell-based
[5] = system: Candida parapsilosis ATCC 22019, CCM 8260; assay: Antifungal microdilution broth method (EUCAST); format: cell-based; settings: Lodderomyces parapsilosis
[6] = system: Acinetobacter baumanii ATCC 19606, DSM 30007; assay: Antibacterial microdilution broth method (EUCAST); format: cell-based; settings: Acinetobacter baumannii
[7] = system: Mycobacterium aurum DSM 43999 (ATCC 23366); assay: Microdilution broth, modified Microplate Alamar Blue Assay, whole cell growth inhibition; format: cell-based; settings: Mycolicibacterium aurum, read-out: MIC Mycobacterium aurum
[8] = system: Escherichia coli ATCC 25922, CCM 3954; assay: Antibacterial microdilution broth method (EUCAST); format: cell-based; settings: read-out: MIC EC
HepG2 cells = assay: HepG2 cytotoxicity, CellTiter 96 (MTS) assay; format: cell-based, human; settings: for IC50: Homo sapiens, read-out: HepG2 IC50; for SI, selectivity index: IC50 (HepG2)/MIC against Mtb H37Ra (in µM)
[9] = system: Aspergillus flavus CCM 8363; assay: Antifungal microdilution broth method (EUCAST); format: cell-based; settings: read-out: MIC AFla
[10] = system: M. avium ssp. avium CNCTC My 80/72 (ATCC 15769); assay: 96 well plate microdilution broth method with Alamar Blue; format: cell-based; settings: Mycobacterium avium
[11] = system: Mycobacterium tuberculosis H37Ra ITM-M006710 (ATCC 9431); assay: Microdilution broth, modified Microplate Alamar Blue Assay, whole cell growth inhibition; format: cell-based; settings: Mycobacterium tuberculosis, read-out: MIC Mtb H37Ra
[12] = system: Mycobacterium smegmatis DSM 43465 (ATCC 607); assay: as above; format: cell-based; settings: Mycolicibacterium smegmatis, read-out: MIC Mycobacterium smegmatis
[13] = system: Klebsiella pneumoniae ATCC 10031, CCM 4415; assay: Antibacterial microdilution broth method (EUCAST)
[14] = system: Trichophyton interdigitale ATCC 9533, CCM 8377; assay: Antifungal microdilution broth method (EUCAST); format: cell-based; settings: read-out: MIC TI
[15] = system: Pseudomonas aeruginosa ATCC 27853, CCM 3955; assay: Antibacterial microdilution broth method (EUCAST); format: cell-based; settings: read-out: MIC PA
[16] = system: M. kansasii CNCTC My 235/80 (ATCC 12478); assay: 96 well plate microdilution broth method with Alamar Blue; format: cell-based; settings: Mycobacterium kansasii
[17] = system: Staphylococcus epidermidis ATCC 12228, CCM 4418; assay: Antibacterial microdilution broth method (EUCAST); format: cell-based; settings: read-out: MIC SE
[18] = system: Enterococcus faecalis ATCC 29212, CCM 4224; assay: Antibacterial microdilution broth method (EUCAST); format: cell-based; settings: read-out: MIC EF
[19] = system: Candida tropicalis ATCC 750, CCM 8264; assay: Antifungal microdilution broth method (EUCAST); format: cell-based; settings: read-out: MIC CT
[20] = system: Aspergillus fumigatus ATCC 204305; assay: Antifungal microdilution broth method (EUCAST); format: cell-based; settings: read-out: MIC AF
[21] = system: Candida krusei ATCC 6258, CCM 8271; assay: Antifungal microdilution broth method (EUCAST); format: cell-based; settings: Pichia kudriavzevii
[22] = format: physicochemical
Experimental: As a complementary test, final compounds were tested for in vitro activity against selected fungal and bacterial pathogens of clinical importance. The microdilution broth method was performed according to The European Committee on Antimicrobial Susceptibility Testing (EUCAST) instructions with slight modifications. The minimum inhibitory concentration was expressed in µM. Not all compounds were evaluated due to the fact of a problem with solubility which occurred for 18 samples. […] See Supplementary Materials for the list of tested strains, methodology, and full results.

[23] = in vitro, Middlebrook 7H9 broth, resazurin

## CCCCCNc1cnc(C(=O)Nc2ccc(O)cc2)cn1 [Compound 3c, N-(4-hydroxyphenyl)-5-(pentylamino)pyrazine-2-carboxamide]
[1]; 24 h
  MIC: > 125 µM
[1]; 48 h
  MIC: > 125 µM
[2]; 24 h
  MIC: > 125 µM
[2]; 48 h
  MIC: > 125 µM
[3]; CCM8077, 24 h
  MIC: > 125 µM
[3]; CCM8077, 48 h
  MIC: > 125 µM
[4]; 24 h, read-out: MIC CA
  MIC: 62.5 µM (≈ 18.8 µg/mL)
[4]; 48 h, read-out: MIC CA
  MIC: 62.5 µM (≈ 18.8 µg/mL)
[4]; read-out: MIC CA (Candida albicans)
  MIC: 62.5 µM (≈ 18.8 µg/mL)
[5]; 24 h, read-out: MIC CP
  MIC: > 125 µM
[5]; 48 h, read-out: MIC CP
  MIC: > 125 µM
[5]; read-out: MIC CP (Candida parapsilosis)
  MIC: > 125 µM
[6]; 24h
  MIC: > 125 µM
[6]; 48h
  MIC: > 125 µM
[7]
  MIC: ≥ 500 µg/mL
[8]; 24 h
  MIC: > 125 µM
[8]; 48 h
  MIC: > 125 µM
HepG2 cells; 24 h incubation, > means higher concentration not reproducible due to precipitation
  HepG2 IC50: above the tested range of concentrations
HepG2 cells; HepG2, 24 h
  IC50: > 500 µM
HepG2 cells
  SI, selectivity index: >38.4
[9]; CCM8363, 24 h
  MIC: > 125 µM
[9]; CCM8363, 48 h
  MIC: > 125 µM
[10]; ATCC15769, pH 6.6, read-out: MIC Mycobacterium avium
  MIC: 50 µg/mL (≈ 166 µM)
[11]; MIC converted to µM
  MIC: 13 µM
[11]; [23]
  MIC: 3.91 µg/mL
[12]
  MIC: 31.2 µg/mL (≈ 104 µM)
[13]; 24h
  MIC KP: > 125 µM
[13]; 48h
  MIC KP: > 125 µM
[14]; 72 h
  MIC: > 125 µM
[14]; 120 h
  MIC: > 125 µM
[15]; 72 h
  MIC: > 125 µM
[15]; 120 h
  MIC: > 125 µM
other
  melting point: 162.6 to 166.8 °C
[16]; ATCC12478, pH 6.6, read-out: MIC Mycobacterium kansasii
  MIC: 12.5 µg/mL (≈ 41.6 µM)
[17]; 24 h
  MIC: > 125 µM
[17]; 48 h
  MIC: > 125 µM
[18]; 24 h
  MIC: > 125 µM
[18]; 48 h
  MIC: > 125 µM
[19]; 24 h
  MIC: > 125 µM
[19]; 48 h
  MIC: > 125 µM
[20]; ATCC204305, 24 h
  MIC: > 125 µM
[20]; ATCC204305, 48 h
  MIC: > 125 µM
[21]; 24 h, read-out: MIC CK
  MIC: > 125 µM
[21]; 48 h, read-out: MIC CK
  MIC: > 125 µM
[21]; read-out: MIC CK (Candida krusei)
  MIC: > 125 µM

## CCCCCCCCNc1cnc(C(=O)Nc2ccc(O)cc2)cn1 [Compound 3f, N-(4-hydroxyphenyl)-5-(octylamino)pyrazine-2-carboxamide]
[22]
  Solubility problem in antibacterial/antifungal testing: did not dissolve in DMSO
[7]; [23]
  MIC: ≥ 250 µg/mL
HepG2 cells; HepG2, 24 h incubation, > means higher concentration not reproducible due to precipitation
  IC50: 60.2 µM
HepG2 cells
  SI, selectivity index: 6.6
[10]; ATCC15769, Middlebrook 7H9 broth pH 6.6, read-out: MIC Mycobacterium avium
  MIC: > 100 µg/mL
[11]; [23]
  MIC: 3.13 µg/mL
[12]; [23]
  MIC: ≥ 250 µg/mL
other
  melting point: 142 to 143 °C
[16]; ATCC12478, Middlebrook 7H9 broth pH 6.6, read-out: MIC Mycobacterium kansasii
  MIC: 6.25 µg/mL (≈ 18.3 µM)
